Consider 19 molecules from BindingDB's records for doi:10.1128/AAC.00448-06 (National Center For Genetic Engineering and Biotechnology …, 2006).

pIC50, pKi: −log10 of the molar value.

In experiment [1] the target is Bifunctional dihydrofolate reductase-thymidylate synthase (Plasmodium vivax, UniProt O02604). Description: Inhibitor Screening Using Bacterial System (IC50) and Measurement of Inhibition Constant (Ki). The following applies: pH 7; 25 °C. On the procedure:
(§1) Nineteen Pyr analogs were studied for their inhibition activity against cells expressing either WT or SP21 mutant PvDHFR-TS. The assays were conducted with 96-well microplates by monitoring the growth at an optical density of 595 nm (A595). The average A595 of control culture omitting Pyr analogs was scored as 100% growth, and the average readings for the cultures at each drug concentration were divided by this value to obtain relative growth values. The concentrations that inhibited 50% bacterial growth (IC50s) were determined from dose-response curves. Inhibition constants (Ki) of antifolates were calculated using a nonlinear least square fit of the data to the Michaelis-Menten equation, assuming the inhibitor binds competitively to the enzyme active site.

Experiment [2] addresses T1, Bifunctional dihydrofolate reductase-thymidylate synthase [1-238,S58R,S117N] (Plasmodium vivax, UniProt O02604, S117N/S58R).
T1 construct: 1-238
The experiment is described as above. On the procedure:
as §1

Bifunctional dihydrofolate reductase-thymidylate synthase, sequence (O02604 whole entry): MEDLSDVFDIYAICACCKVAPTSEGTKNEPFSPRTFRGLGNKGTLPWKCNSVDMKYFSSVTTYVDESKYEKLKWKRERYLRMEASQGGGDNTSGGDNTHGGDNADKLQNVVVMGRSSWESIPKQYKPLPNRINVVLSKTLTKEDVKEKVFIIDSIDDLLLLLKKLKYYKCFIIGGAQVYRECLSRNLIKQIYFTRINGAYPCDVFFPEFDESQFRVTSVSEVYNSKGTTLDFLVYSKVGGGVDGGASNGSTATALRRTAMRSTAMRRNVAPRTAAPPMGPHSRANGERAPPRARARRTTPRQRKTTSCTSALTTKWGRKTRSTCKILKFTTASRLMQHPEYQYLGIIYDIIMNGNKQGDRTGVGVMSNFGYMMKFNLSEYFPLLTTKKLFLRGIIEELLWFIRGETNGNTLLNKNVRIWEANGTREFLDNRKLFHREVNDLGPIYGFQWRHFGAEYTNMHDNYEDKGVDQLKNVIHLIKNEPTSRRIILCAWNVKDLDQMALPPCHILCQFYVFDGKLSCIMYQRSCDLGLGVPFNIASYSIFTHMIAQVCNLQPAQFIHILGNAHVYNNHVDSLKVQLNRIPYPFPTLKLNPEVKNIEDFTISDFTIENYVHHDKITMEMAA
T1 sequence (O02604 1-238, looked up, stated change not applied): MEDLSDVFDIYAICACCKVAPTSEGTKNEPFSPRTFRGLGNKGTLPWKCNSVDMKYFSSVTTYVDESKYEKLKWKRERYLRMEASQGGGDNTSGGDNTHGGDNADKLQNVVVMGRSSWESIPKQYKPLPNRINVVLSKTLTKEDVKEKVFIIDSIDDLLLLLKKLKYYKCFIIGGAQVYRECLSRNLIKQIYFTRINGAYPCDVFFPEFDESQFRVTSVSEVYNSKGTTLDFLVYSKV

As a reminder, the pIC50 is −log10 of the IC50, conventionally taken in molar units. Read a low pIC50 as a high IC50. One may read the pKi as −log10 of the Ki, conventionally taken in molar units. The low end stands for a high Ki, the high end for a low Ki. Consider `CCc1nc(N)nc(N)c1-c1ccc(Cl)cc1`, for which the pIC50 is 6.74 in experiment [1] and 4.70 in experiment [2]. The pKi was 9.68 in experiment [1] and 8.52 in experiment [2].
For `Cc1nc(N)nc(N)c1-c1ccc(Cl)cc1`, in that order: 5.71, less than 4.30, 9.11 and 7.20.
In experiment [1], `COC(=O)CCCc1nc(N)nc(N)c1-c1ccc(Cl)cc1` gave a pIC50 of 6.70 and a pKi of 9.16. In experiment [2], this molecule showed a negative logarithm of the IC50 (pIC50) of less than 4.30 and a pKi of 8.13.
For `CCc1nc(N)nc(N)c1-c1ccc(OC)cc1`, in that order: 6.46, 9.00, less than 4.30 and 7.42.
The like results for `CCc1nc(N)nc(N)c1-c1ccc(Cl)c(Cl)c1` were, in that order, 7.15, 9.28, 4.98 and 8.98.
The like results for `Nc1nc(N)c(-c2cccc(Cl)c2)c(CCCc2ccccc2)n1` were, in that order, 5.62, 9.11, 4.86 and 8.88.
In experiment [1], `CCc1nc(N)nc(N)c1-c1ccccc1` showed a pIC50 of 5.74 and a pKi of 10.52. In experiment [2], this molecule showed a pIC50 of 5.82 and a pKi of 10.10.
The like results for `Cc1nc(N)nc(N)c1-c1ccccc1` were, in that order, 4.95, 8.38, 4.89 and 7.65.
For `Nc1nc(N)c(-c2ccccc2)c(CCCc2ccccc2)n1`, in that order: 6.10, 9.28, 5.56 and 9.09.
The like results for `Nc1nc(N)c(-c2cccc(Cl)c2)c(CCOCCCOc2ccccc2)n1` [5-(3-chlorophenyl)-6-[2-(3-phenoxypropoxy)ethyl]pyrimidine-2,4-diamine] were, in that order, 5.64, 9.20, 4.85 and 8.82.
On to `CCc1nc(N)nc(N)c1-c1cccc(Cl)c1` [5-(3-chlorophenyl)-6-ethylpyrimidine-2,4-diamine], for which the pIC50 was 6.44 in experiment [1] and 6.52 in experiment [2]. In addition, the figures for the pKi in experiment [1] and in experiment [2] were 9.51 and 9.27, respectively.
For `Cc1nc(N)nc(N)c1-c1cccc(Cl)c1` [5-(3-chlorophenyl)-6-methylpyrimidine-2,4-diamine], in that order: 5.67, 5.70, 9.16 and 8.92.
For `CCc1nc(N)nc(N)c1-c1ccc(Br)cc1` [5-(4-bromophenyl)-6-ethylpyrimidine-2,4-diamine], in that order: 7.05, 4.52, 9.11 and 8.18.
For `CC(C)Cc1nc(N)nc(N)c1-c1ccc(Cl)cc1` [5-(4-chlorophenyl)-6-(2-methylpropyl)pyrimidine-2,4-diamine], in that order: 6.66, 4.74, 8.85 and 7.55.
In the case of `CCCCCCCCCc1nc(N)nc(N)c1-c1ccc(Cl)cc1` [5-(4-chlorophenyl)-6-nonylpyrimidine-2,4-diamine], the pIC50 in experiment [1] is 5.66; in experiment [2], less than 4.30. In addition, the figures for the pKi in experiment [1] and in experiment [2] were 8.37 and 7.61, respectively.
For `Nc1ncc(-c2ccc(Cl)cc2)c(N)n1` [5-(4-chlorophenyl)pyrimidine-2,4-diamine], in that order: 5.82, less than 4.30, 8.47 and 5.97.
For `CCc1nc(N)nc(N)c1-c1ccc(C(C)(C)C)cc1` [5-(4-tert-butylphenyl)-6-ethylpyrimidine-2,4-diamine], in experiment [1], the pIC50 is 5.75 and the pKi is 8.94. In experiment [2], this molecule gave a pIC50 of less than 4.30 and a pKi of 7.32.
For `CCc1nc(N)nc(N)c1-c1ccc(C)cc1` [6-ethyl-5-(4-methylphenyl)pyrimidine-2,4-diamine], in that order: 6.85, 9.41, 4.91 and 8.66.
`CCCCCCc1nc(N)nc(N)c1-c1ccccc1` [6-hexyl-5-phenylpyrimidine-2,4-diamine]: the figures for the pIC50 in experiment [1] and in experiment [2] were 6.64 and 5.52, respectively. Further, in experiment [2], the negative logarithm of the Ki (pKi) is 9.05.
